# According to US20050113292A1 (priority 2003, published 2005):
# What was measured:
# R9 HIV-1 virus = format: cell-based; conditions: 0.5 µM
# [1] = system: HIV-1 mediated cell-cell fusion (R8 virus); conditions: mediated cell-cell fusion (R8 virus)
# T-tropic (R8) HIV-1 = conditions: T-tropic (R8)
# M-tropic (BAL) HIV-1 = conditions: M-tropic (BAL)
# HIV = conditions: human, in vivo; cited from earlier work
Molecule,percentage of inhibition of cell infection (R9 HIV-1 virus),EC50 [1],IC50 [1],IC50 (T-tropic (R8) HIV-1),IC50 (M-tropic (BAL) HIV-1),IC50 (NL4-3 (MT-4)),IC50 (T-20 Resistant Virus),Ratio (T-20 Resistant Virus),reduction of plasma HIV RNA levels (HIV),IC50 (HIV-1 NL4-3),IC50 (HIV-1 89.6),IC50 (HIV-1 pNLHxB),IC50 (HIV-1 92MW965.26),IC50 (HIV-1 92UG024.2),IC50 (HIV-1 92HT599.24),IC50 (T20-resistant virus)
enfuvirtide,~100%,22.1 nM,22.1 nM,76.4 nM,3.9 nM,4.31 nM,32.3 nM,7.50,≤ 2 logs,,,,,,,
CC[C@H](C)[C@H](NC(=O)[C@H](CC(C)C)NC(=O)[C@H](CO)NC(=O)[C@H](Cc1c[nH]cn1)NC(=O)[C@@H](NC(=O)[C@H](CC(C)C)NC(=O)[C@H](CO)NC(=O)[C@@H](NC(=O)[C@H](Cc1ccc(O)cc1)NC(=O)[C@H](CC(N)=O)NC(=O)[C@H](CC(N)=O)NC(=O)[C@@H](NC(=O)[C@H](CCC(=O)O)NC(=O)[C@H](CCCNC(=N)N)NC(=O)[C@H](CC(=O)O)NC(=O)[C@H](Cc1c[nH]c2ccccc12)NC(=O)[C@H](CCC(=O)O)NC(=O)[C@H](CCSC)NC(=O)[C@H](Cc1c[nH]c2ccccc12)NC(=O)[C@@H]1CSC(C(=O)N[C@@H](CCCCNC(=O)CCCCCNC(=O)CCCCCNC(=O)[C@H](CCCCNC(=O)CCCCCNC(=O)CCCCCNC(=O)CCCCCNC(=O)[C@H](CCCCN)NC(=O)C2N[C@H](C(=O)N[C@@H](Cc3c[nH]c4ccccc34)C(=O)N[C@@H](CCSC)C(=O)N[C@@H](CCC(=O)O)C(=O)N[C@@H](Cc3c[nH]c4ccccc34)C(=O)N[C@@H](CC(=O)O)C(=O)N[C@@H](CCCNC(=N)N)C(=O)N[C@@H](CCC(=O)O)C(=O)N[C@H](C(=O)N[C@@H](CC(N)=O)C(=O)N[C@@H](CC(N)=O)C(=O)N[C@@H](Cc3ccc(O)cc3)C(=O)N[C@H](C(=O)N[C@@H](CO)C(=O)N[C@@H](CC(C)C)C(=O)N[C@H](C(=O)N[C@@H](Cc3c[nH]cn3)C(=O)N[C@@H](CO)C(=O)N[C@@H](CC(C)C)C(=O)N[C@H](C(=O)N[C@@H](CCC(=O)O)C(=O)N[C@@H](CCC(=O)O)C(=O)N[C@@H](CO)C(=O)N[C@@H](CCC(N)=O)C(=O)N[C@@H](CC(N)=O)C(=O)N[C@@H](CCC(N)=O)C(=O)N[C@@H](CCC(N)=O)C(=O)N[C@@H](CCC(=O)O)C(=O)N[C@@H](CCCCN)C(=O)N[C@@H](CC(N)=O)C(=O)N[C@@H](CCC(=O)O)C(=O)N[C@@H](CCC(N)=O)C(=O)N[C@@H](CCC(=O)O)C(=O)N[C@@H](CC(C)C)C(=O)N[C@@H](CC(C)C)C(=O)O)[C@@H](C)CC)[C@@H](C)CC)[C@@H](C)O)[C@@H](C)CC)CS2)NC(=O)C2N[C@H](C(=O)N[C@@H](Cc3c[nH]c4ccccc34)C(=O)N[C@@H](CCSC)C(=O)N[C@@H](CCC(=O)O)C(=O)N[C@@H](Cc3c[nH]c4ccccc34)C(=O)N[C@@H](CC(=O)O)C(=O)N[C@@H](CCCNC(=N)N)C(=O)N[C@@H](CCC(=O)O)C(=O)N[C@H](C(=O)N[C@@H](CC(N)=O)C(=O)N[C@@H](CC(N)=O)C(=O)N[C@@H](Cc3ccc(O)cc3)C(=O)N[C@H](C(=O)N[C@@H](CO)C(=O)N[C@@H](CC(C)C)C(=O)N[C@H](C(=O)N[C@@H](Cc3c[nH]cn3)C(=O)N[C@@H](CO)C(=O)N[C@@H](CC(C)C)C(=O)N[C@H](C(=O)N[C@@H](CCC(=O)O)C(=O)N[C@@H](CCC(=O)O)C(=O)N[C@@H](CO)C(=O)N[C@@H](CCC(N)=O)C(=O)N[C@@H](CC(N)=O)C(=O)N[C@@H](CCC(N)=O)C(=O)N[C@@H](CCC(N)=O)C(=O)N[C@@H](CCC(=O)O)C(=O)N[C@@H](CCCCN)C(=O)N[C@@H](CC(N)=O)C(=O)N[C@@H](CCC(=O)O)C(=O)N[C@@H](CCC(N)=O)C(=O)N[C@@H](CCC(=O)O)C(=O)N[C@@H](CC(C)C)C(=O)N[C@@H](CC(C)C)C(=O)O)[C@@H](C)CC)[C@@H](C)CC)[C@@H](C)O)[C@@H](C)CC)CS2)C(N)=O)N1)[C@@H](C)CC)[C@@H](C)O)[C@@H](C)CC)C(=O)N[C@@H](CCC(=O)O)C(=O)N[C@@H](CCC(=O)O)C(=O)N[C@@H](CO)C(=O)N[C@@H](CCC(N)=O)C(=O)N[C@@H](CC(N)=O)C(=O)N[C@@H](CCC(N)=O)C(=O)N[C@@H](CCC(N)=O)C(=O)N[C@@H](CCC(=O)O)C(=O)N[C@@H](CCCCN)C(=O)N[C@@H](CC(N)=O)C(=O)N[C@@H](CCC(=O)O)C(=O)N[C@@H](CCC(N)=O)C(=O)N[C@@H](CCC(=O)O)C(=O)N[C@@H](CC(C)C)C(=O)N[C@@H](CC(C)C)C(=O)O (stereo partly drawn) [Compound 3α3-C34],,,,,,1.59 nM,0.34 nM,0.21,,0.73 nM,10.2 nM,0.76 nM,0.16 nM,0.6 nM,0.25 nM,0.47 nM
